What was measured:
Rat [1] = details: dosed: dibromoacetic acid, 100 mg/kg, oral, Male, F344
Rat [2] = details: dosed: dibromoacetic acid, 40 mg/kg, oral, Male, F344
Rat [3] = details: dosed: dibromoacetic acid, 100 mg/kg, oral, Male, F344; remark: listed apart in the source
Rat [4] = details: dosed: dibromoacetic acid, 40 mg/kg, oral, Male, F344; remark: listed apart in the source
Rat [5] = details: dosed: dibromoacetic acid, 100 mg/kg, oral, Male, F344; remark: listed apart in the source
Rat [6] = details: dosed: dibromoacetic acid, 40 mg/kg, oral, Male, F344; remark: listed apart in the source
Rat [7] = assay: concentration in blood after dosing; details: dosed: Naphthalene, 3 mg/kg, iv, Male, F344
Rat [8] = assay: concentration in blood after dosing; details: dosed: Naphthalene, iv, F344
Rat [9] = assay: concentration in blood after dosing; details: dosed: Naphthalene, 1 mg/kg, iv, Female, F344
Rat [10] = assay: concentration in blood after dosing; details: dosed: Naphthalene, 1 mg/kg, iv, Male, F344
Rat [11] = assay: concentration in blood after dosing; details: dosed: Naphthalene, 10 mg/kg, iv, Male, F344
Rat [12] = assay: concentration in blood after dosing; details: dosed: Naphthalene, 3 mg/kg, iv, Female, F344
Rat [13] = assay: concentration in blood after dosing; details: dosed: Naphthalene, 1 mg/kg, iv, Male, F344; remark: listed apart in the source
Rat [14] = assay: concentration in blood after dosing; details: dosed: Naphthalene, 3 mg/kg, iv, Male, F344; remark: listed apart in the source
Rat [15] = assay: concentration in blood after dosing; details: dosed: Naphthalene, 1 mg/kg, iv, Female, F344; remark: listed apart in the source
Rat [16] = assay: concentration in blood after dosing; details: dosed: Naphthalene, 10 mg/kg, iv, Male, F344; remark: listed apart in the source

O=C(O)C(Br)Br [dibromoacetic acid]
amount in urine after dosing [µg]
Details	Rat [1]	Rat [2]	Rat [3]	Rat [4]	Rat [5]	Rat [6]
2 h	–	–	17.7	–	–	0.735
4 h	61.7	8.7	54.6	–	55.8	–
8 h	–	3.52	44.1	11.7	–	–
24 h	37.7	3.52	19.1	1.52	81	4.47
48 h	2.24	–	4.62	–	5.03	–

c1ccc2ccccc2c1 [Naphthalene]
concentration in blood [ng/mL]
Details	1 h	2 h	2 min	4 h	5 min	6 h	8 h	10 min	20 min	40 min
Rat [7]	169	82.8	–	–	2000	–	–	3690	1240	306
Rat [9]	–	–	21.4	–	51.6	23.6	–	–	20.5	–
Rat [10]	30.5	–	1300	–	625	–	–	340	82.5	46.6
Rat [11]	407	172	–	76.7	8050	38.2	–	4930	2640	839
Rat [12]	103	47	2870	26.7	1900	27.7	24.2	942	468	151
Rat [13]	36.2	–	1390	–	701	–	–	312	127	54.8
Rat [14]	133	52.1	6890	19.3	4770	–	–	2440	736	255
Rat [15]	21.2	–	1740	–	548	–	–	204	29.3	34.3
Rat [16]	487	172	–	90.2	8740	47.3	33.3	4000	2610	661

concentration in blood [ng/mL], Rat [8]
Details	1 mg/kg	3 mg/kg	10 mg/kg
1 h, Female	–	80	–
1 h, Male	34.8	172	446
2 h, Female	–	35.1	–
2 h, Male	–	233	214
2 min, Female	1330	2780	–
2 min, Male	3260	260	–
4 h, Male	–	87.1	90
5 min, Female	770	1480	–
5 min, Male	677	152	11200
6 h, Male	–	90.9	58.5
8 h, Male	–	20.6	38.1
10 min, Female	407	1380	–
10 min, Male	315	215	6220
12 h, Male	–	–	21.5
20 min, Female	120	375	–
20 min, Male	107	185	2850
40 min, Female	43	125	–
40 min, Male	–	173	860

Source: EPA's CvTdb concentration-time database
